PubChem BioAssay AID1421 (Emory University Molecular Libraries Screening Center, 2008)
The source made the active and inactive calls. The rule behind the calls is not given here.

target: Prostaglandin E2 receptor EP2 subtype (Homo sapiens) (UniProt P43116); test: EP2 receptor modulators, dose response, cell-based, human EP2, PGE2 EC50 shift (AID 1421); settings: EP2-expressing cells, PGE2 EC50 shift by compound
Sequence (P43116 whole entry, looked up): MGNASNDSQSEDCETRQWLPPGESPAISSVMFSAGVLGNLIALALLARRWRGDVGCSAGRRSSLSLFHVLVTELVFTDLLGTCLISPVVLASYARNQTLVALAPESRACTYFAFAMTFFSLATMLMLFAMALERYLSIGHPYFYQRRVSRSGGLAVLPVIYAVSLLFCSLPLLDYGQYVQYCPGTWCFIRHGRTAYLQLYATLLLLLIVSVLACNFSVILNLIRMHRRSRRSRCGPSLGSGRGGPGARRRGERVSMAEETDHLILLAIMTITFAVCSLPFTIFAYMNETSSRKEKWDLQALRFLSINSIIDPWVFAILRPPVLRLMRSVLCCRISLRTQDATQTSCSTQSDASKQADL

Question: Which outcome does the source give for `CC1CCC(C(C)C)C(OC(=O)COC(=O)c2ccc(=O)[nH]c2)C1` (stereo unspecified) here?
Answer: The outcome was “active”.

Question: `C(=N/n1c2ccccc2c2ccccc21)/c1ccco1` was tested. Which outcome did it give?
Answer: Its outcome is “active”.

Question: How did the outcome turn out when `O=C1CCC(c2ccccc2)=NN1Cc1c(F)cccc1Cl` was run?
Answer: Its outcome is “active”.

Question: With `NC(=O)CSc1nc(-c2ccccc2)c(-c2ccccc2)o1` as the compound, how does the outcome read?
Answer: The outcome was “active”.

Question: How did the outcome turn out when `O=C(Nc1cc(C(F)(F)F)ccc1-n1cncn1)c1ccc(-c2ccccc2)cc1` was run?
Answer: The outcome was “active”.

Question: With `CCCc1cc(-c2n[nH]c(=S)n2C(C)c2ccccc2)cs1` (stereo unspecified) as the compound, how does the outcome read?
Answer: The outcome was “active”.

same assay, conditions: EP2-expressing cells, PGE2 EC50 shift by compound; measured here: PGE2 EC50 at 6.7 uM compound

Question: With `C=CCCC1(C)C(=O)N(c2ccccc2)c2ccccc21` (stereo unspecified) as the compound, how does the PGE2 EC50 with compound read?
Answer: The PGE2 EC50 with compound was 1.2 nM.

Question: How did the PGE2 EC50 with compound turn out when `O=c1[nH]c2ccc(Cl)cc2c(-c2ccccc2)c1N1CCN(c2ccccn2)CC1` was run?
Answer: Its PGE2 EC50 with compound is 1.64 nM.

Question: Which PGE2 EC50 with compound does the source give for `CNC(=O)NC(=O)CSc1nc(-c2cccs2)c(C#N)c(=O)[nH]1` here?
Answer: Its PGE2 EC50 with compound is 3.08 nM.

Question: How did the PGE2 EC50 with compound turn out when `COc1ccc(-n2c(-c3ccccc3)nnc2-c2ccc(Cl)cc2)cc1` was run?
Answer: Its PGE2 EC50 with compound is 1.23 nM.

Question: With `CCCCOC(=O)Sc1nc2ccccc2o1` as the compound, how does the PGE2 EC50 with compound read?
Answer: Its PGE2 EC50 with compound is 2.48 nM.

Question: `Brc1ccc(Cn2c(-c3ccc(Br)o3)nc3ccccc32)o1` was tested. Which PGE2 EC50 with compound did it give?
Answer: The PGE2 EC50 with compound was 2.59 nM.

Question: `Cc1ccc(C)c(N=C2CCCN2Cc2ccccc2)c1C#N` was tested. Which PGE2 EC50 with compound did it give?
Answer: The PGE2 EC50 with compound was 0.61 nM.

Question: Which PGE2 EC50 with compound does the source give for `CCCOc1ccc(/C=N/Nc2ccc(C(=O)O)cc2)c(OCCC)c1` here?
Answer: The PGE2 EC50 with compound was 0.87 nM.

Question: How did the PGE2 EC50 with compound turn out when `Cc1ccc(C)n1-c1sc2c(c1C#N)CCCC2` was run?
Answer: The PGE2 EC50 with compound was 2.65 nM.

Question: `CCCn1c(Nc2nc3ccccc3n2C)nc2ccccc21` was tested. Which PGE2 EC50 with compound did it give?
Answer: Its PGE2 EC50 with compound is 1.02 nM.

Question: For `COc1ccc(OC(=O)c2cccc([N+](=O)[O-])c2)c(C(=O)/C=C/c2cccs2)c1`, which PGE2 EC50 with compound is on record?
Answer: Its PGE2 EC50 with compound is 2.52 nM.

Question: `O=c1[nH]c(=S)c2c(n1-c1ccccc1)CCC2` was tested. Which PGE2 EC50 with compound did it give?
Answer: Its PGE2 EC50 with compound is 1.46 nM.

Question: With `CN(c1ccccc1)C1CCCCC1NS(=O)(=O)c1ccc(Cl)cc1` (stereo unspecified) as the compound, how does the PGE2 EC50 with compound read?
Answer: Its PGE2 EC50 with compound is 2.43 nM.

Question: For `COC(=O)CSc1nc(Cc2ccccc2)nc2ccccc12`, which PGE2 EC50 with compound is on record?
Answer: The PGE2 EC50 with compound was 2.72 nM.

Question: How did the PGE2 EC50 with compound turn out when `C[C@]12CCC(=O)C=C1CCC1C2CC[C@@]2(C)C1CC[C@@H]2O` (stereo partly specified) was run?
Answer: The PGE2 EC50 with compound was 1.55 nM.

Question: `Oc1ccc(/C=N/N(Cc2ccccc2)c2ccccc2)cc1` was tested. Which PGE2 EC50 with compound did it give?
Answer: The PGE2 EC50 with compound was 0.76 nM.

Question: For `Cn1cc(C2=C(c3ccc(Cl)cc3Cl)C(=O)NC2=O)c2ccccc21`, which PGE2 EC50 with compound is on record?
Answer: Its PGE2 EC50 with compound is 0.68 nM.

Question: Which PGE2 EC50 with compound does the source give for `CCN=C1S/C(=C\c2ccc(O)c(OCC)c2)C(=O)N1CC` here?
Answer: Its PGE2 EC50 with compound is 0.81 nM.

Question: How did the PGE2 EC50 with compound turn out when `CC(C)CCn1c(Oc2ccc(Cl)cc2)nc2c1c(=O)n(C)c(=O)n2C` was run?
Answer: The PGE2 EC50 with compound was 0.72 nM.

Question: Which PGE2 EC50 with compound does the source give for `O=C(Nc1ccccc1-c1nc2ccccc2s1)C1=COCCO1` here?
Answer: The PGE2 EC50 with compound was 0.46 nM.

Question: For `CCCCOc1ccccc1Cn1c(=O)oc2ccc(C)cc21`, which PGE2 EC50 with compound is on record?
Answer: Its PGE2 EC50 with compound is 0.92 nM.

Question: For `O=S(=O)(c1cccs1)N1CN(Cc2cccs2)c2nc3ccccc3nc21`, which PGE2 EC50 with compound is on record?
Answer: The PGE2 EC50 with compound was 1.64 nM.

Question: Which PGE2 EC50 with compound does the source give for `CCCCOc1ccccc1NC(=O)c1scc2c1OCCO2` here?
Answer: The PGE2 EC50 with compound was 0.32 nM.

Question: With `COc1ccc(-n2c(=S)[nH]c3c(oc4ccccc43)c2=O)cc1` as the compound, how does the PGE2 EC50 with compound read?
Answer: The PGE2 EC50 with compound was 2.8 nM.

Question: How did the PGE2 EC50 with compound turn out when `S=C1NCCc2ccc(Cl)cc2C1c1ccccc1` (stereo unspecified) was run?
Answer: Its PGE2 EC50 with compound is 1.38 nM.

Question: `CCn1c2ccc(OC)cc2c2nc3ccccc3nc21` was tested. Which PGE2 EC50 with compound did it give?
Answer: The PGE2 EC50 with compound was 2.47 nM.

Question: For `CC1CCC(C(C)C)C(OC(=O)COC(=O)c2ccc(=O)[nH]c2)C1` (stereo unspecified), which PGE2 EC50 with compound is on record?
Answer: Its PGE2 EC50 with compound is 1.4 nM.

Question: How did the PGE2 EC50 with compound turn out when `C=CCn1c(=S)[nH]c2sccc2c1=O` was run?
Answer: Its PGE2 EC50 with compound is 1.53 nM.

Question: `O=C(O)c1nn(CC(=O)N(C2CCCCC2)C2CCCCC2)c(=O)c2ccccc12` was tested. Which PGE2 EC50 with compound did it give?
Answer: The PGE2 EC50 with compound was 1.12 nM.

Question: `CCC(=O)O[C@H]1CCC2C3CCC4=CC(=O)CC[C@]4(C)C3CC[C@@]21C` (stereo partly specified) was tested. Which PGE2 EC50 with compound did it give?
Answer: The PGE2 EC50 with compound was 0.76 nM.

Question: `Cc1cc(O)ccc1C1(c2ccc(O)cc2C)OC(=O)c2ccccc21` was tested. Which PGE2 EC50 with compound did it give?
Answer: Its PGE2 EC50 with compound is 0.55 nM.

Question: How did the PGE2 EC50 with compound turn out when `O=c1cc(N2CCCCC2)c(-c2ccccc2)nn1Cc1c(Cl)cccc1Cl` was run?
Answer: The PGE2 EC50 with compound was 0.71 nM.

Question: Which PGE2 EC50 with compound does the source give for `C=CCSc1nc(Oc2ccccc2)c2sccc2n1` here?
Answer: Its PGE2 EC50 with compound is 2.43 nM.

Question: `Cc1ccc(-c2csc(Nc3ccc(C(=O)O)cc3)[n+]2Cc2ccccc2)cc1` was tested. Which PGE2 EC50 with compound did it give?
Answer: Its PGE2 EC50 with compound is 0.77 nM.

Question: `O=C(c1ccc(Cl)cc1)c1oc2ccccc2c1CS(=O)(=O)c1ccccc1` was tested. Which PGE2 EC50 with compound did it give?
Answer: The PGE2 EC50 with compound was 2.88 nM.

Question: How did the PGE2 EC50 with compound turn out when `CC(C)NC(=S)NN=C1CCCCCCCCCCC1` was run?
Answer: Its PGE2 EC50 with compound is 0.97 nM.

Question: `CC[C@@H]1Cc2cc(O)ccc2C2=C1c1ccc(O)cc1C[C@H]2CC` was tested. Which PGE2 EC50 with compound did it give?
Answer: The PGE2 EC50 with compound was 0.3 nM.

Question: Which PGE2 EC50 with compound does the source give for `Nc1ccc(Cl)cc1C(=O)c1ccccc1Cl` here?
Answer: The PGE2 EC50 with compound was 1.16 nM.

Question: For `CCc1cc(-c2[nH]ncc2-c2ccc3c(c2)OCO3)c(O)cc1O`, which PGE2 EC50 with compound is on record?
Answer: Its PGE2 EC50 with compound is 1.31 nM.

Question: Which PGE2 EC50 with compound does the source give for `Cc1ccc(NP(=O)(Oc2ccccc2F)Oc2ccccc2F)cc1C` here?
Answer: Its PGE2 EC50 with compound is 1.35 nM.

Question: `CCOC(=O)CN(C(=O)CSc1nnc(Cc2ccccc2)n1-c1ccc(C)cc1)c1ccccc1` was tested. Which PGE2 EC50 with compound did it give?
Answer: The PGE2 EC50 with compound was 1.48 nM.

Question: With `Cc1ccc(C)n1-n1cnc2scc(-c3cccs3)c2c1=O` as the compound, how does the PGE2 EC50 with compound read?
Answer: The PGE2 EC50 with compound was 0.97 nM.

Question: `Nc1nc(Cc2ccccc2)nc(Cc2ccccc2)c1-c1ccccc1` was tested. Which PGE2 EC50 with compound did it give?
Answer: The PGE2 EC50 with compound was 0.79 nM.

Question: `Cc1cccc(C(=O)Nc2cccc(OCC(=O)O)c2)c1` was tested. Which PGE2 EC50 with compound did it give?
Answer: Its PGE2 EC50 with compound is 6.72 nM.

Question: `COC(=O)c1cc2ccsc2n1Cc1ccccc1F` was tested. Which PGE2 EC50 with compound did it give?
Answer: The PGE2 EC50 with compound was 0.83 nM.

Question: For `C(=N/n1c2ccccc2c2ccccc21)/c1ccco1`, which PGE2 EC50 with compound is on record?
Answer: The PGE2 EC50 with compound was 1.08 nM.

Question: Which PGE2 EC50 with compound does the source give for `C1=C(c2ccccc2)Nc2ccccc2N=C1c1ccccc1` here?
Answer: The PGE2 EC50 with compound was 2.46 nM.

Question: Which PGE2 EC50 with compound does the source give for `CCOC(=O)C(C)Sc1ncc(OC)c(Sc2ccc(Cl)cc2)n1` (stereo unspecified) here?
Answer: The PGE2 EC50 with compound was 0.67 nM.

Question: With `CCN(CC)S(=O)(=O)c1c(OC)cc(C)c(Cl)c1C` as the compound, how does the PGE2 EC50 with compound read?
Answer: Its PGE2 EC50 with compound is 2.56 nM.

Question: With `O=C(O)NCc1ccccc1` (tested in a mixture with another compound) as the compound, how does the PGE2 EC50 with compound read?
Answer: Its PGE2 EC50 with compound is 1.38 nM.
